Reference: patent US20070003536A1, “Topical skin compositions, their preparation, and their use” (priority 2000, published 2007)

Assays:
[1] = molecular target: T1, MMP-1 (interstitial collagenase) (Homo sapiens, UniProt P03956); assay: MMP-1 activity kit (Amersham); assay type: biochemical; conditions: samples diluted to 100 mg/ml using PBS; FIG. 5
T1 construct: purchased Amersham
T1 sequence (P03956 100-469): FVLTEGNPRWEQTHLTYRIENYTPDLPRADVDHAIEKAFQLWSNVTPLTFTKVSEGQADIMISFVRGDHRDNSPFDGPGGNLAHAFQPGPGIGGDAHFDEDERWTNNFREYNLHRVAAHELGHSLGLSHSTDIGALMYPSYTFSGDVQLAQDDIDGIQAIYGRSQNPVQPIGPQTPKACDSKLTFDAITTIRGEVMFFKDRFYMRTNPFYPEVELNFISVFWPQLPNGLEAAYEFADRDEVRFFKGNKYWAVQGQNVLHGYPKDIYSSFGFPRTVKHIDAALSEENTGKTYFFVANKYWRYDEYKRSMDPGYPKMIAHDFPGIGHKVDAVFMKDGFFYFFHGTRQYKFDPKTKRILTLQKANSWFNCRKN
From the text: FIG. 5 is a graph showing the effect of samples on MMP-1 activity. The data are expressed as % control MMP-1 activity. The horizontal line denotes 100% activity.
The matrix metalloproteinases (MMP) are a group of zinc dependent enzymes, which degrade varying components of the extracellular matrix in both normal and diseased tissue. MMP-1 (interstitial collagenase) is thought to initiate the cleavage of fibrillar collagen while MMP-9 (gelatinase) digests the denatured collagen fragments generated by MMP-1. The products of MMP-9 digestion are then free to be incorporated into new collagen fibrils. Elastase breaks down elastin. The expression of these enzymes is under strict control and changes as individuals age or are exposed to UV irradiation. Because MMP-1 is involved in initiation of collagen breakdown, it would be advantageous for skin care products to inhibit MMP-1 activity. […] Finally, elastase should be inhibited as to prevent digestion of elastin and the […] of the skin.
Commercially available kits were used for testing the effect of the samples on the activity of the MMPs of interest. For MMP-1, a kit from Amersham was used according to the manufacturer's specifications. For MMP-9 and Elastase, kits from Molecular Probes were used. The samples were prepared in the solvent noted in table I at stock concentrations of 100 mg/ml. […]

RAW 264.7 cells = assay: NO production by LPS stimulated RAW 264.7 cells (Griess reagent); assay type: cell-based, Murine; conditions: for inhibitory effect on nitrite accumulation in culture supernatants: LPS stimulated RAW cells, in words; for Nitrite produced: LPS 100 ng/ml, LPS control 901.7
Description: FIG. 8 is a graph showing the effect of samples on NO production by RAW 264.7 cells. Data are expressed as % NO produced compared to the LPS stimulated positive control. L6=Lipochroman-6, NT=Nutriene tocotrienols, TQS=γ-Tocopherylquinone S, VC=Viapure Citrus, SZ=Soybean Zymbiosome, and NPR=NAB Pikea robusta.
Cells in skin can produce nitric oxide (NO) when exposed to UV light, and NO thus produced has the potential to induce age associated changes in skin. This study was performed in order to screen a panel of cosmetics and skin care raw materials for their effect on NO production by RAW 264.7 cells.
Murine RAW 264.7 cells were seeded in a 96 well plate at 1×10^5 cells /well. The plate was incubated overnight. The following day, the cells were treated with the samples at 0.001, 0.01, and 0.1% for 2 hours. The samples are listed below in Table II. Following the exposure period, LPS was added to the wells at 100 ng/ml. The plate was incubated overnight. Equal volumes of culture supernatant and Griess reagent were incubated for 15 min at room temperature and the absorbance at 540 nm was read. The amount of nitrite in the samples was calculated from a standard curve generated with sodium nitrite.

[2] = test system: Human dermal fibroblasts (Hs-27); assay: Procollagen secretion by fibroblasts, energy booster samples with co-stimuli, Example 4; assay type: cell-based; conditions: Media line: stimulus alone, no energy booster (Centella asiatica, vitamin C 0.001%; Biodynes EMPP 0.1%); media control 1533
Description: (§1) Four new samples that boost cellular energy were tested for their ability to augment extracellular matrix component production in response to Centella and Biodynes. Human dermal fibroblasts were used as these cells actively synthesize extracellular matrix components. In addition to measuring procollagen and elastin levels, hyaluronic acid levels were also measured. Hyaluronic acid is a member of the glycosaminoglycan family of compounds. Glycosaminoglycans make up the ground substance of connective tissue, and along with elastin, help provide elasticity to skin. They also hold water and therefore provide viscosity and hydrating properties.
(§2) Samples were diluted in media. Centella asiatica and vitamin C were prepared at 0.001%. Biodynes EMPP was prepared at 0.1%. Centella asiatica was prepared as an extract in DMSO:ethanol:water at 50:30:20. The “energy booster” samples, Seanergilium algae extract, Thiotaine, Sepitonic, and Phytovityl corn kernel extract, were all prepared in media at 0.01, 0.1, and 1.0%. Human dermal fibroblasts (Hs-27) were plated in 24 well plates and were incubated overnight. The cells were treated with the samples at the concentrations indicated for 2 consecutive days. […]

[3] = test system: Human dermal fibroblasts (Hs-27); assay: Hyaluronic acid secretion by fibroblasts, energy booster samples with co-stimuli, Example 4; assay type: cell-based; conditions: Media line: stimulus alone, no energy booster (Centella asiatica, vitamin C 0.001%; Biodynes EMPP 0.1%); media control 1112
Description: as §1
Samples were diluted in media. Centella asiatica and vitamin C were prepared at 0.001%. Biodynes EMPP was prepared at 0.1%. Centella asiatica was prepared as an extract in DMSO:ethanol:water at 50:30:20. The “energy booster” samples, Seanergilium algae extract, Thiotaine, Sepitonic, and Phytovityl corn kernel extract, were all prepared in media at 0.01, 0.1, and 1.0%. Human dermal fibroblasts (Hs-27) were plated in 24 well plates and were incubated overnight. […]
Data are expressed as ng hyaluronic acid/ml culture supernatant. The amount of hyaluronic acid in each supernatant was calculated from a standard curve generated using a hyaluronic acid standard supplied with the ELISA kit.

[4] = test system: Human dermal fibroblasts (Hs-27); assay: Elastin secretion by fibroblasts, energy booster samples with co-stimuli, Example 4; assay type: cell-based; conditions: Media line: stimulus alone, no energy booster (Centella asiatica, vitamin C 0.001%; Biodynes EMPP 0.1%)
Description: as §1, §2

Question: Which “effect on MMP-1 activity” value [1] does the source give for COC1=C(OC)C(=O)C(C/C=C(\C)CC/C=C(\C)CC/C=C(\C)CC/C=C(\C)CC/C=C(\C)CC/C=C(\C)CC/C=C(\C)CC/C=C(\C)CC/C=C(\C)CCC=C(C)C)=C(C)C1=O [CoQ10, 2,3,-dimethoxy-5-methyl-6-decaprenyl-benzoquinone] here?
Answer: Its value is “most potent activators”.

Question: COc1cc2c(cc1O)CCC(C)(C)O2 [Lipochroman-6] was tested. Which “inhibitory effect on nitrite accumulation in culture supernatants” value (“inhibitory effect” for short) (RAW 264.7 cells) did it give?
Answer: Its value is “most potent”.

Question: What about the “inhibitory effect” value (RAW 264.7 cells; listed as L6) of the same molecule?
Answer: Its value is “more inhibitory activity than do mixed tocopherols”.

Question: What about the Nitrite produced (RAW 264.7 cells; dose 0.001%) of the same molecule?
Answer: The Nitrite produced was 1006.5 ng/mL.

Question: What about the Nitrite produced (RAW 264.7 cells; dose 0.01%) of the same molecule?
Answer: The Nitrite produced was 750.7 ng/mL.

Question: And the Nitrite produced (RAW 264.7 cells; dose 0.1%)?
Answer: Its Nitrite produced is 336.7 ng/mL.

Question: How did the procollagen secretion [2] turn out when O=C1O[C@H]([C@@H](O)CO)C(O)=C1O [Vitamin C, ascorbic acid] was run?
Answer: The procollagen secretion was 1744 ng/mL.

Question: What about the hyaluronic acid secretion [3] of the same molecule?
Answer: Its hyaluronic acid secretion is 633 ng hyaluronic acid/ml culture supernatant.

Question: And the “elastin secretion, % media control elastin” value [4]?
Answer: The value was 148%.

Question: How did the “inhibitory effect” value (RAW 264.7 cells) turn out when CC1=C(C)C(=O)C(CC[C@](C)(O)CCC[C@H](C)CCC[C@H](C)CCCC(C)C)=CC1=O [g-Tocopherylquinone S] was run?
Answer: The value was “most potent”.

Question: What about the Nitrite produced (RAW 264.7 cells; dose 0.001%) of the same molecule?
Answer: Its Nitrite produced is 754.2 ng/mL.

Question: And the Nitrite produced (RAW 264.7 cells; dose 0.01%)?
Answer: The Nitrite produced was 830.3 ng/mL.

Question: What about the Nitrite produced (RAW 264.7 cells; dose 0.1%) of the same molecule?
Answer: Its Nitrite produced is 217.9 ng/mL.
